Source: patent publication US12393007B2, “Method for adapting optical properties of an immersion mixture, and immersion mixtures and components thereof” (Carl Zeiss Microscopy GmbH, priority 2018, dated 2025)
Counter-ions that a name gives are not always drawn. Like-named read-outs stand apart in the source and are kept apart here.

Key:
[1] = Refractive index ne at 23° C., reference wavelength 546.1 nm; assay type: physicochemical
[2] = source Merck; cited from earlier work
[3] = pure substance, 23° C., 546.1 nm

Molecule | ne (refractive index) of the substance [1, 3] | further results
CCCC(O)C(CC)CO (centres unmarked) [2-ethylhexane-1,3-diol] | 1.4518 | 
OCC(F)(OC(F)(F)C(F)(OC(F)(F)C(F)(F)C(F)(F)F)C(F)(F)F)C(F)(F)F (centres unmarked) [Cheminox PO-3-OH, 2,3,3,3-tetrafluoro-2-[1,1,2,3,3,3-hexafluoro-2-(heptafluoropropoxy)propoxy]-1-propanol] |  | ne (refractive index) of the substance [1]: 1.2944
CCCCC(CC)COC(=O)CCCCCCCCC(=O)OCC(CC)CCCC (centres unmarked) [bis (2-ethylhexyl) sebacate] | 1.4511 | 
CC(=O)CC(C)(C)O [diacetone alcohol, 4-hydroxy-4-methyl-2-pentanone] | 1.4244 | 
CCOC(=O)/C=C/C(=O)OCC [diethyl fumarate] | 1.4419 | 
CCOC(=O)/C=C\C(=O)OCC [diethyl maleate] | 1.4414 | 
CCOC(=O)CCC(=O)OCC [diethyl succinate] | 1.4200 | 
CCOCCOCCOCC [diethylene glycol diethyl ether] | 1.4126 | 
COC(=O)CCCCC(=O)OC [dimethyl adipate] | 1.4289 | 
COC(=O)/C=C\C(=O)OC [dimethyl maleate] | 1.4435 | 
CC(=O)OCCOC(C)=O [ethylene glycol diacetate] | 1.4161 | 
O.O.O.O.O.O.O.O=S(=O)([O-])[O-].[Mg+2] [magnesium sulfate heptahydrate] |  | ne (refractive index) of aqueous solution 200 g/L [1]: 1.3529
O.O.[Na+].[Na+].[O]=[Mo](=[O])([O-])[O-] [sodium molybdate dihydrate] |  | solubility in water (20° C.) [2]: 840 mg/mL
O=C([O-])c1ccccc1O.[Na+] [sodium salicylate] |  | ne (refractive index) of aqueous solution 200 g/L [1]: 1.3747
N#C[S-].[Na+] [sodium thiocyanate] |  | ne (refractive index) of aqueous solution 200 g/L [1]: 1.3765
O.O.[Na+].[Na+].[O]=[W](=[O])([O-])[O-] [sodium tungstate dihydrate] |  | ne (refractive index) of aqueous solution 200 g/L [1]: 1.3531; solubility in water (20° C.) [2]: 730 mg/mL
CCOC(=O)CC(O)(CC(=O)OCC)C(=O)OCC [triethyl citrate] | 1.4431 | 
CCCCC(CC)C(=O)OCCOCCOCCOC(=O)C(CC)CCCC (centres unmarked) [triethylene glycol bis(2-ethylhexanoate)] | 1.4449 | 
ammonium sulfate |  | ne (refractive index) of aqueous solution 200 g/L [1]: 1.3629
bis(hydroxymethyl)perfluoropolyether [Cheminox OXF-3PO-OH] | 1.3220 | 
dimethyl propylene urea |  | ne (refractive index) of the substance [1]: 1.4909
tetrahydrofurfuryl alcohol polyethylene glycol ether |  | ne (refractive index) of the substance [1]: 1.4621
